One may read the melting point as the temperature of the solid-liquid transition.

Regarding `CCOC(=O)c1c(I)c(NC(C)=O)c(I)c(NC(C)=O)c1I` [NC 8883, Ethyl 3,5-diacetamido-2,4,6-triiodobenzoate], the melting point was 280 to 290 °C (dec.).

Take `CCOC(=O)COC(=O)c1c(I)c(NC(C)=O)c(I)c(NC(C)=O)c1I` [NC 12901, Ethyl (3,5-diacetamido-2,4,6-triiodobenzoyloxy)acetate]: the melting point is 269.5 to 270.5 °C (dec.).

Values taken from patent US20050265923A1, “Embolus therapy using insoluble microparticles or vesicles containing contrast agents” (priority 1997, published 2005).
